Measurements published in patent publication US20250353873A1, “COMPOUNDS AND METHODS FOR MODULATING APOE EXPRESSION” (Ionis Pharmaceuticals, Inc., priority 2024, published 2025).
Strand notation (5' to 3'): a small letter for the sugar, then the base; units joined by * are phosphorothioate-linked, units joined directly phosphodiester-linked; [ ] holds rarer units or linkages, { } end groups; capitals alone tell only the bases. [ms] = mesyl phosphoramidate linkage; e = 2'-O-(2-methoxyethyl) (MOE); k = constrained ethyl (cEt); [5mC] = 5-methylcytosine; d = 2'-deoxy (DNA)

Legend:
human APOE RNA [1] = test: Dose-dependent inhibition of human APOE RNA in HepG2 cells, electroporation, 50,000 cells per well, RT-PCR normalized to GAPDH (Example 4, Tables 8-10); format: cell-based; conditions: HepG2, electroporation, 24-hour treatment
Experimental: Modified oligonucleotides selected from the examples above were tested at various doses in HepG2 cells. The modified oligonucleotides were tested in a series of experiments that had the same culture conditions. Each experiment is identified in separate tables below.
HepG2 cells plated at a density of 50,000 cells per well were treated by electroporation with various concentrations of modified oligonucleotide as specified in the tables below. […] APOE RNA levels were measured using the human primer probe set RTS3073 (forward sequence […], designated herein as SEQ ID NO: 7; reverse sequence CCATCAGCGCCCTCAGTT, designated herein as SEQ ID NO: 8; probe sequence […], designated herein as SEQ ID NO:9). APOE RNA levels were normalized to human GAPDH. […] Results are presented as percent APOE RNA, relative to the amount of APOE RNA in untreated control cells (UTC).

human APOE RNA [2] = test: Activity in APOE C57BL/6NTac-Apoeem7250 knock-in mice, single ICV bolus, 4 weeks (Example 10); format: in vivo; conditions: single ICV bolus 300 μg, 4 weeks post treatment, normalized to mouse Ppia
Experimental: Modified oligonucleotides described above were tested in the APOE C57BL/6NTac-Apoeem7250 knock-in mouse model described above.
APOE C57BL/6NTac-Apoeem7250 knock-in mice were divided into groups of 2-4 mice each. Each mouse received a single ICV bolus of 300 μg of modified oligonucleotide. A group of 3-4 mice received a single ICV bolus with PBS as a negative control.
Four weeks post treatment, mice were sacrificed and RNA was extracted from cortical brain tissue and spinal cord for quantitative real-time RT-PCR analysis of RNA expression of APOE using human primer probe set RTS3073 (described herein above). APOE RNA levels were normalized to mouse Ppia. Mouse Ppia was amplified using primer probe set m_cyclo24 (described herein above). Results are presented as percent human APOE RNA relative to the amount of human APOE RNA in PBS treated animals, (% control). Each experiment is identified in separate tables below.

human APOE RNA [3] = test: Activity in APOE C57BL/6NTac-Apoeem7250 knock-in mice, single ICV bolus, 8 weeks (Example 11); format: in vivo; conditions: single ICV bolus 300 μg, 8 weeks post treatment, normalized to mouse Ppia
Summary of the method: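 Human APOE knock-in C57BL/6NTac mice given one ICV bolus of 300 μg oligonucleotide; PBS-dosed group as control. At 8 weeks, cortex and spinal cord RNA measured by qRT-PCR (human probe RTS3073), normalized to mouse Ppia, expressed as % of PBS control.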

human APOE RNA [4] = test: Activity in APOE C57BL/6NTac-Apoeem7250 knock-in mice, single ICV bolus, 16 weeks (Example 12); format: in vivo; conditions: single ICV bolus 300 μg, 16 weeks post treatment, normalized to mouse Ppia
Summary of the method: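 Knock-in mice (3-4 per group) received one ICV bolus of 300 μg oligonucleotide, PBS as control. After 16 weeks, human APOE RNA in cortex and spinal cord measured by RT-qPCR, normalized to mouse Ppia, and reported as % of PBS control.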

Row | Substance | APOE RNA (% UTC) (human APOE RNA [1]; 5 nM) | APOE RNA (% UTC) (human APOE RNA [1]; 13 nM) | APOE RNA (% UTC) (human APOE RNA [1]; 33 nM) | APOE RNA (% UTC) (human APOE RNA [1]; 82 nM) | APOE RNA (% UTC) (human APOE RNA [1]; 205 nM) | APOE RNA (% UTC) (human APOE RNA [1]; 512 nM) | APOE RNA (% UTC) (human APOE RNA [1]; 1,280 nM) | APOE RNA (% UTC) (human APOE RNA [1]; 3,200 nM) | APOE RNA (% UTC) (human APOE RNA [1]; 8,000 nM) | APOE RNA (% UTC) (human APOE RNA [1]; 20,000 nM) | IC50 (human APOE RNA [1]) [nM] | APOE RNA (% control) Cortex (human APOE RNA [2]) [% control] | APOE RNA (% control) Spinal Cord (human APOE RNA [2]) [% control] | APOE RNA (% control) Cortex (human APOE RNA [3]) [% control] | APOE RNA (% control) Spinal Cord (human APOE RNA [3]) [% control] | APOE RNA (% control) Cortex (human APOE RNA [4]) [% control] | APOE RNA (% control) Spinal Cord (human APOE RNA [4]) [% control]
1 | 1746786 (k[5mC]*kT*dT[ms]dG[ms]kG*dT[ms]dG[ms]dA[ms]dA[ms]dT*d[5mC]*dT*dT*dT*dA[ms]dT*kT*kA*dA[ms]kA; antisense) [Compound 1746786] | 85 | 93 | 90 | 75 | 87 | 63 | 39 | 34 | 18 | 14 | 1010 | 79 | 52 | – | – | – | –
2 | 1746795 (k[5mC]*kT*dT[ms]kG*dG[ms]dT[ms]dG[ms]dA[ms]dA[ms]dT*d[5mC]*dT*dT*dT*dA[ms]dT*kT*dA[ms]kA*kA; antisense) [Compound 1746795] | 119 | 115 | 110 | 108 | 99 | 53 | 57 | 28 | 12 | 6 | 1290 | 75 | 75 | – | – | – | –
3 | 1746807 (k[5mC]*kT*dT[ms]dG[ms]dG[ms]kT*dG[ms]dA[ms]dA[ms]dT*d[5mC]*dT*dT*dT*dA[ms]dT*dT[ms]kA*kA*kA; antisense) [Compound 1746807] | 119 | 127 | 111 | 86 | 88 | 62 | 52 | 29 | 16 | 30 | 1430 | 90 | 119 | – | – | – | –
4 | 1693049: 5-10-5 MOE gapmer CTTGGTGAATCTTTATTAAA, linkages ssssszzzzssssszssss (antisense e[5mC]*eT*eT*eG*eG*dT[ms]dG[ms]dA[ms]dA[ms]dT*d[5mC]*dT*dT*dT*dA[ms]eT*eT*eA*eA*eA) [compound 1693049] | – | – | – | – | – | – | – | – | – | – | – | – | – | 101 | 96 | 93 | 81
5 | 1693082: 6-10-4 MOE gapmer TTGGTGAATCTTTATTAAAC, linkages ssssoozzszssszsssss (eT*eT*eG*eG*eTeGdA[ms]dA[ms]dT*d[5mC][ms]dT*dT*dT*dA[ms]dT*dT*eA*eA*eA*e[5mC]) [compound 1693082] | – | – | – | – | – | – | – | – | – | – | – | – | – | 113 | 54 | 81 | 72
6 | 1693040: 5-10-5 MOE gapmer CTTGGTGAATCTTTATTAAA, linkages sssosszzzssssssosss (antisense e[5mC]*eT*eT*eGeG*dT*dG[ms]dA[ms]dA[ms]dT*d[5mC]*dT*dT*dT*dA*eTeT*eA*eA*eA) [compound 1693040] | – | – | – | – | – | – | – | – | – | – | – | – | – | 80 | 77 | 92 | 71
